Measurements reported in US20100267561A1, “HERBICIDAL PYRIDAZINONE DERIVATIVES” (priority 2007, published 2010).

Assays:
Assay in all cases: Test E pre-/postemergence plant response
Assay type in all cases: in vivo
Conditions in all cases: scale 0 to 100
[1] = test system: itchgrass (Rottboellia cochinchinensis)
In short: (§1)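 Ratings of 0 (no effect) through 100 (complete control) came from visual evaluation against untreated plants after a 14- to 21-day greenhouse period. Compound in a non-phytotoxic solvent/surfactant mixture was applied preemergence to seeds and postemergence to plants at the 1- to 4-leaf stage.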

[2] = test system: Italian ryegrass (Lolium multiflorum)
In short: as §1

[3] = test system: southern (S.) sandbur (Cenchrus echinatus)
In short: as §1

[4] = test system: quackgrass (Elytrigia repens)
In short: as §1

[5] = test system: annual bluegrass (Poa annua)
In short: as §1

[6] = test system: purple nutsedge (Cyperus rotundus)
In short: as §1

[7] = test system: bermudagrass (Cynodon dactylon)
In short: as §1

[8] = test system: common groundsel (Senecio vulgaris)
In short: as §1

[9] = test system: green foxtail (Setaria viridis)
In short: as §1

[10] = test system: common mallow (Malva sylvestris)
In short: as §1

[11] = test system: black mustard (Brassica nigra)
In short: as §1

[12] = test system: guineagrass (Panicum maximum)
In short: as §1

[13] = test system: goosegrass (Eleusine indica)
In short: as §1

[14] = test system: johnsongrass (Sorghum halepense)
In short: as §1

[15] = test system: pitted morningglory (Ipomoea lacunosa)
In short: as §1

[16] = test system: surinam grass (Brachiaria decumbens)
In short: as §1

[17] = test system: common purslane (Portulaca oleracea)
In short: as §1

SMILES: CCc1cc(-c2ccc(C(F)(F)F)cc2)nn1-c1c(OC(=O)OC(C)C)cnn(C)c1=O [Compound 12]
- Plant response rating, Itchgrass ([1]; 4 g ai/ha, Postemergence): 0
- Plant response rating, Itchgrass ([1]; 31 g ai/ha, Preemergence): 80
- Plant response rating, Itchgrass ([1]; Postemergence, 8 g ai/ha): 50
- Plant response rating, Itchgrass ([1]; Postemergence, 31 g ai/ha): 95
- Plant response rating, Itchgrass ([1]; Preemergence, 4 g ai/ha): 20
- Plant response rating, Ryegrass, Italian ([2]; 4 g ai/ha, Postemergence): 75
- Plant response rating, Ryegrass, Italian ([2]; 31 g ai/ha, Preemergence): 98
- Plant response rating, Ryegrass, Italian ([2]; Postemergence, 8 g ai/ha): 100
- Plant response rating, Ryegrass, Italian ([2]; Postemergence, 31 g ai/ha): 100
- Plant response rating, Ryegrass, Italian ([2]; Preemergence, 4 g ai/ha): 40
- Plant response rating, Sandbur, S. ([3]; 4 g ai/ha, Postemergence): 90
- Plant response rating, Sandbur, S. ([3]; 31 g ai/ha, Preemergence): 95
- Plant response rating, Sandbur, S. ([3]; Postemergence, 8 g ai/ha): 98
- Plant response rating, Sandbur, S. ([3]; Postemergence, 31 g ai/ha): 100
- Plant response rating, Sandbur, S. ([3]; Preemergence, 4 g ai/ha): 0
- Plant response rating, Quackgrass ([4]; 4 g ai/ha, Postemergence): 20
- Plant response rating, Quackgrass ([4]; 31 g ai/ha, Preemergence): 80
- Plant response rating, Quackgrass ([4]; Postemergence, 8 g ai/ha): 30
- Plant response rating, Quackgrass ([4]; Postemergence, 31 g ai/ha): 95
- Plant response rating, Quackgrass ([4]; Preemergence, 4 g ai/ha): 0
- Plant response rating, Bluegrass ([5]; 4 g ai/ha, Postemergence): 0
- Plant response rating, Bluegrass ([5]; 8 g ai/ha, Preemergence): 0
- Plant response rating, Bluegrass ([5]; 31 g ai/ha, Preemergence): 0
- Plant response rating, Bluegrass ([5]; Postemergence, 8 g ai/ha): 0
- Plant response rating, Bluegrass ([5]; Postemergence, 31 g ai/ha): 0
- Plant response rating, Bluegrass ([5]; Preemergence, 4 g ai/ha): 0
- Plant response rating, Nutsedge, Purple ([6]; 4 g ai/ha, Postemergence): 0
- Plant response rating, Nutsedge, Purple ([6]; 31 g ai/ha, Preemergence): 0
- Plant response rating, Nutsedge, Purple ([6]; Postemergence, 8 g ai/ha): 0
- Plant response rating, Nutsedge, Purple ([6]; Postemergence, 31 g ai/ha): 0
- Plant response rating, Bermudagrass ([7]; 4 g ai/ha, Postemergence): 15
- Plant response rating, Bermudagrass ([7]; 8 g ai/ha, Preemergence): 75
- Plant response rating, Bermudagrass ([7]; 31 g ai/ha, Preemergence): 95
- Plant response rating, Bermudagrass ([7]; Postemergence, 8 g ai/ha): 70
- Plant response rating, Bermudagrass ([7]; Postemergence, 31 g ai/ha): 95
- Plant response rating, Bermudagrass ([7]; Preemergence, 4 g ai/ha): 35
- Plant response rating, Groundsel ([8]; 4 g ai/ha, Postemergence): 0
- Plant response rating, Groundsel ([8]; 31 g ai/ha, Preemergence): 0
- Plant response rating, Groundsel ([8]; Postemergence, 8 g ai/ha): 0
- Plant response rating, Groundsel ([8]; Postemergence, 31 g ai/ha): 0
- Plant response rating, Groundsel ([8]; Preemergence, 4 g ai/ha): 0
- Plant response rating, Foxtail, Green ([9]; 4 g ai/ha, Postemergence): 30
- Plant response rating, Foxtail, Green ([9]; 8 g ai/ha, Preemergence): 60
- Plant response rating, Foxtail, Green ([9]; 31 g ai/ha, Preemergence): 100
- Plant response rating, Foxtail, Green ([9]; Postemergence, 8 g ai/ha): 90
- Plant response rating, Foxtail, Green ([9]; Postemergence, 31 g ai/ha): 100
- Plant response rating, Foxtail, Green ([9]; Preemergence, 4 g ai/ha): 0
- Plant response rating, Mallow ([10]; 4 g ai/ha, Postemergence): 0
- Plant response rating, Mallow ([10]; 31 g ai/ha, Preemergence): 0
- Plant response rating, Mallow ([10]; Postemergence, 8 g ai/ha): 0
- Plant response rating, Mallow ([10]; Postemergence, 31 g ai/ha): 0
- Plant response rating, Mallow ([10]; Preemergence, 4 g ai/ha): 0
- Plant response rating, Mustard, Black ([11]; 4 g ai/ha, Postemergence): 0
- Plant response rating, Mustard, Black ([11]; 8 g ai/ha, Preemergence): 0
- Plant response rating, Mustard, Black ([11]; 31 g ai/ha, Preemergence): 0
- Plant response rating, Mustard, Black ([11]; Postemergence, 8 g ai/ha): 0
- Plant response rating, Mustard, Black ([11]; Postemergence, 31 g ai/ha): 0
- Plant response rating, Mustard, Black ([11]; Preemergence, 4 g ai/ha): 0
- Plant response rating, Guineagrass ([12]; 4 g ai/ha, Postemergence): 95
- Plant response rating, Guineagrass ([12]; 31 g ai/ha, Preemergence): 100
- Plant response rating, Guineagrass ([12]; Postemergence, 8 g ai/ha): 95
- Plant response rating, Guineagrass ([12]; Postemergence, 31 g ai/ha): 95
- Plant response rating, Guineagrass ([12]; Preemergence, 4 g ai/ha): 0
- Plant response rating, Goosegrass ([13]; 4 g ai/ha, Postemergence): 10
- Plant response rating, Goosegrass ([13]; 8 g ai/ha, Preemergence): 65
- Plant response rating, Goosegrass ([13]; 31 g ai/ha, Preemergence): 75
- Plant response rating, Goosegrass ([13]; Postemergence, 8 g ai/ha): 30
- Plant response rating, Goosegrass ([13]; Postemergence, 31 g ai/ha): 90
- Plant response rating, Goosegrass ([13]; Preemergence, 4 g ai/ha): 25
- Plant response rating, Johnsongrass ([14]; 4 g ai/ha, Postemergence): 95
- Plant response rating, Johnsongrass ([14]; 31 g ai/ha, Preemergence): 95
- Plant response rating, Johnsongrass ([14]; Postemergence, 8 g ai/ha): 95
- Plant response rating, Johnsongrass ([14]; Postemergence, 31 g ai/ha): 95
- Plant response rating, Johnsongrass ([14]; Preemergence, 4 g ai/ha): 75
- Plant response rating, Morningglory ([15]; 4 g ai/ha, Postemergence): 0
- Plant response rating, Morningglory ([15]; 31 g ai/ha, Preemergence): 0
- Plant response rating, Morningglory ([15]; Postemergence, 8 g ai/ha): 0
- Plant response rating, Morningglory ([15]; Postemergence, 31 g ai/ha): 0
- Plant response rating, Morningglory ([15]; Preemergence, 4 g ai/ha): 0
- Plant response rating, Surinam Grass ([16]; 4 g ai/ha, Postemergence): 35
- Plant response rating, Surinam Grass ([16]; 31 g ai/ha, Preemergence): 95
- Plant response rating, Surinam Grass ([16]; Postemergence, 8 g ai/ha): 90
- Plant response rating, Surinam Grass ([16]; Postemergence, 31 g ai/ha): 98
- Plant response rating, Surinam Grass ([16]; Preemergence, 4 g ai/ha): 0
- Plant response rating, Purslane ([17]; 4 g ai/ha, Postemergence): 0
- Plant response rating, Purslane ([17]; 31 g ai/ha, Preemergence): 0
- Plant response rating, Purslane ([17]; Postemergence, 8 g ai/ha): 0
- Plant response rating, Purslane ([17]; Postemergence, 31 g ai/ha): 0
- Plant response rating, Purslane ([17]; Preemergence, 4 g ai/ha): 0
